Experimental data as given in US10532040B2, “Methods of treating cancer with herbacetin” (REGENTS OF THE UNIVERSITY OF MINNESOTA, priority 2011, dated 2020).
“Also recorded” adds a separate entry of the source.

Columns and labels:
JB6 epidermal cells = test: TPA-induced JB6 cell transformation; type: cell-based, mouse; settings: 2 weeks
Description: (§1) FIGS. 3A-3H. Anticancer effect of herbacetin. (a) The effect of herbacetin on ODC activity in colon cancer cell lines was measured as the release of CO2 from L-[1-C^14] ornithine. […] (b) The effect of herbacetin and DFMO on the growth of colon cancer cells and (c) TPA-induced JB6 cell growth was compared. Cells were incubated for 72 h and growth was estimated using the MTS assay. (d) The effect of herbacetin on anchorage independent HCT116 colon cancer cell growth and (e) TPA-induced JB6 cell transformation was assessed. Cells were incubated for 2 weeks and then colonies were counted using a microscope and the Image-Pro PLUS (v.6) computer software program. The effect of herbacetin on AP-1 reporter activity in (f) HCT116 colon cancer cells and (g) TPA-induced AP-1 reporter activity in JB6 mouse epidermal cells was analyzed using the substrates included in the reporter assay system. Data are represented as means±S.D. of triplicate values from three independent experiments and the asterisk (*) indicates a significant (p<0.05) effect of herbacetin or DFMO compared to untreated or TPA-treated controls. (h) The effect of herbacetin on the phosphorylation of ERK1 and ERK2 in HCT116 colon cancer cells was determined by Western blotting. Similar results were observed from two independent experiments.

[1] = test system: activator protein-1 (AP-1); test: AP-1 reporter activity in HCT116 cells; type: cell-based; settings: HCT116 cells treated 48 h
Description: as §1, with “Data are represented as means±S.D. of triplicate values from three independent experiments and the asterisk (*) indicates a significant (p<0.05) effect of herbacetin or DFMO compared to untreated or TPA-treated controls.” left out, “Similar results were observed from two independent experiments.” left out
(§2) We determined whether herbacetin affected the reporter activity of the MAP kinase target transcription factor, activator protein-1 (AP-1), in HCT116 cells or JB6 cells stimulated with TPA. […] AP-1 reporter activity was then measured (FIG. 3f, g) and the activity was attenuated by herbacetin in colon cancer cells and in TPA-activated JB6 cells. […]

[2] = test system: HCT116 cells (shMock, shODC, shODC+ODC); test: growth of shMock, shODC and shODC+ODC HCT116 cells; type: cell-based
Description: FIGS. 4A-4B. The anti-cancer activity exerted by herbacetin is dependent on ODC expression. (a) The effect of herbacetin on HCT116 colon cancer cell growth was assessed in shMock, shODC and shODC cells with rescued ODC expression. Cells were incubated for 72 h and growth was determined by MTS assay. (b) The effect of herbacetin on anchorage independent HCT116 colon cancer cell growth was assessed inshMock, shODC and shODC cells with rescued ODC expression. Cells were incubated in 0.3% agar for 3 weeks and colonies were counted using a microscope and the Image-Pro PLUS (v.6) computer software program. Data are represented as means±S.D. of triplicate values. The asterisk (*) indicates a significant effect (p<0.05) of herbacetin or DFMO compared to untreated controls.
The lentiviral expression vectors, including pLKO.1-shODC and packaging vectors, including pMD2.0G and psPAX, were purchased from Addgene Inc. (Cambridge, Mass.). […] The transfection medium was changed at 4 h after transfection and then cells were cultured for 36 h. The viral particles were harvested by filtration using a […] syringe filter and then combined with 8 μg/ml of polybrane (Millipore, Billerica, Mass.) and infected into 60% confluent HCT-116 cells overnight. The cell culture medium was replaced with fresh complete growth medium for 24 h and then cells were selected with 1.5 μg/ml of puromycine for 36 h. The selected cells were used for experiments.

ODC = target: T1, ODC (Mus musculus, UniProt P00860); test: ODC activity in TPA-treated JB6 mouse skin epidermal cells; type: cell-based
T1 construct: endogenous in cells; host or cells: JB6 mouse skin epidermal cells, TPA-treated
T1 sequence (P00860 1-461): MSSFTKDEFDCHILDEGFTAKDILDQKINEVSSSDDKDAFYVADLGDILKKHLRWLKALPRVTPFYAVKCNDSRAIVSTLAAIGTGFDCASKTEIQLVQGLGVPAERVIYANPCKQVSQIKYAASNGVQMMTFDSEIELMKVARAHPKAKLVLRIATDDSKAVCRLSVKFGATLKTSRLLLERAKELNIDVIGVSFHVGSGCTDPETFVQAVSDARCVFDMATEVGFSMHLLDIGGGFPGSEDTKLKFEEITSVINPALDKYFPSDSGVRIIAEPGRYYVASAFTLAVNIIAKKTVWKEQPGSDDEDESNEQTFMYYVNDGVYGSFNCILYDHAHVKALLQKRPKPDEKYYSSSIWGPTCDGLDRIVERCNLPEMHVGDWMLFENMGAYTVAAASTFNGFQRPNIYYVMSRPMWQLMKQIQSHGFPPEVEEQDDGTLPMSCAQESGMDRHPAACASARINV
Description: ODC activity was measured as the release of CO2 from L-[1-C^14] ornithine as previously described ([…]).

[3] = test system: HCT116 colon cancer cells; test: anchorage independent HCT116 colon cancer cell growth; type: cell-based
Description: as §1

ERK1/2, p90^RSK = test: Western blotting of ERK1/2 and p90RSK phosphorylation in HCT116 cells; type: cell-based
Description: as §1, with “Data are represented as means±S.D. of triplicate values from three independent experiments and the asterisk (*) indicates a significant (p<0.05) effect of herbacetin or DFMO compared to untreated or TPA-treated controls.” left out, “Similar results were observed from two independent experiments.” left out
as §2

C57BL/6J-ApcMin+ mice = test: APCMin+ mouse colon cancer prevention pilot study, IP, 15 weeks; type: in vivo
Description: The anti-cancer effect of herbacetin in vivo has also been shown. Herbacetin prevents colon cancer development in […]57BL/6J-ApcMin+ were divided into […] and injected IP with vehicle or 1 of 2 amounts of herbacetin in vehicle. The doses included 0, 0.4, or 2 mg/kg B.W. herbacetin injected IP (n=15 total, 5 per group; Table 1). APC-min mice were 5 weeks old at the beginning of the study and received herbacetin for 15 weeks 5 days/week.

[4] = 0.4 or 2 mg/kg BW IP, 15 weeks, 5 days/week

O=c1c(O)c(-c2ccc(O)cc2)oc2c(O)c(O)cc(O)c12 [herbacetin, 3,5,7,8,4′-Pentahydroxyflavone]
TPA-induced neoplastic transformation of JB6 epidermal cells (JB6 epidermal cells): markedly suppressed | AP-1 reporter activity [1]: attenuated | inhibitory effect on anchorage-dependent and -independent growth of shODC cells ([2]; shODC vs shMock HCT116 cells): resistance to herbacetin; also recorded: resistant | sensitivity of shODC cells with rescued ODC expression ([2]; shODC+ODC HCT116 cells): restored; also recorded: regained sensitivity | inhibition of colony growth after re-introduction of ODC into sh-ODC knockdown cells ([2]; shODC+ODC HCT116 cells, soft agar): restored sensitivity | suppression of ODC activity (ODC): markedly more effective than DFMO; also recorded: inhibit TPA-induced ODC1 activity | effectiveness relative to DFMO in suppressing anchorage independent growth ([3]; HCT116, 2 weeks): at least 20 fold | potency relative to DFMO ([3]; general statement, test not specified): 20-50 times | phosphorylation of ERK1/2 and p90^RSK (ERK1/2, p90^RSK): suppressed phosphorylation | colon tumor number (C57BL/6J-ApcMin+ mice; [4]): fewer | colon tumor size (C57BL/6J-ApcMin+ mice; [4]): smaller | body weight (C57BL/6J-ApcMin+ mice; APCMin+ mice): no effect
